Assays:
Staphylococcus aureus [1] = assay: Antibacterial activity against methicillin-resistant and quinolone-resistant Staphylococcus aureus ARC 517 assessed as growth inhibition by broth microdilution method; type: functional
[2] = Octanol-sodium phosphate buffer partition coefficient, log D of the compound at pH 7.4 by shake-flask method
Staphylococcus aureus [3] = assay: Antibacterial activity against Staphylococcus aureus ARC 516 assessed as growth inhibition by broth microdilution method; type: functional
[4] = Retention time of the compound by LC-MS method; type: physicochemical
[5] = Inhibition of Staphylococcus aureus TMK assessed as decrease in ATP production using dTDP and ADP as substrate after 3.5 hrs by luciferin/luciferase based luminescence analysis
Enterococcus faecalis = assay: Antibacterial activity against vancomycin-resistant Enterococcus faecalis ARC 1618 assessed as growth inhibition by broth microdilution method; type: functional
Streptococcus pneumoniae = assay: Antibacterial activity against Streptococcus pneumoniae ARC 2481 assessed as growth inhibition by broth microdilution method; type: functional
[6] = Fraction unbound in mouse plasma at 10 uM after 5 hrs by rapid equilibrium dialysis method; type: ADME, cell-free
Escherichia coli = assay: Antibacterial activity against Escherichia coli ARC 523 assessed as growth inhibition by broth microdilution method; type: functional
Pseudomonas aeruginosa = assay: Antibacterial activity against Pseudomonas aeruginosa ARC 545 assessed as growth inhibition by broth microdilution method; type: functional
[7] = Cytotoxicity against human A549 cells; type: cell-based; settings: read-out: MIC
Enterococcus faecium = assay: Antibacterial activity against linezolid-resistant Enterococcus faecium ARC 1239 assessed as growth inhibition by broth microdilution method; type: functional
[8] = Fraction unbound in human plasma at 10 uM after 5 hrs by rapid equilibrium dialysis method; type: ADME, cell-free
[9] = Ratio of IC50 for human […] to IC50 for Staphylococcus aureus TMK
[10] = In vivo clearance in Wistar rat at 5 to 10 mg/kg, iv administered as bolus dose; type: ADME, organism-based; set-up: dose 5-10 mg/kg, route intravenous
Streptococcus pyogenes = assay: Antibacterial activity against Streptococcus pyogenes ARC 2834 assessed as growth inhibition by broth microdilution method; type: functional
[11] = system: Staphylococcus epidermidis; assay: Antibacterial activity against Staphylococcus epidermidis ARC 323 assessed as growth inhibition by broth microdilution method; type: functional

Row | Compound | MIC (Staphylococcus aureus [1]) [µg/mL] | logD [2] | MIC (Staphylococcus aureus [3]) [µg/mL] | Retention_time [4] [min] | IC50 [5] [nM] | other results
1 | COc1c(CN2CCC[C@H](n3cc(C)c(=O)[nH]c3=O)C2)ccc(C(=O)O)c1Oc1cccc(Cl)c1 | 16 | -0.77 | 8 | 2.17 | 10 | 
2 | Cc1cn([C@H]2CCCN(Cc3cccc(Oc4cc(F)cc(Cl)c4)c3Cl)C2)c(=O)[nH]c1=O |  |  |  | 2.31 | 779 | 
3 | Cc1cn([C@H]2CCCN([C@H](CC(C)(C)C)c3ccc(C(=O)O)c(Oc4cccc(Br)c4)c3)C2)c(=O)[nH]c1=O |  |  |  |  | 0.8 | MIC (Enterococcus faecalis): 1 µg/mL; MIC90 (Streptococcus pneumoniae): 0.03 µg/mL; fraction unbound at 5 h, 10 µM [6]: < 0.003; MIC (Escherichia coli): > 64 µg/mL; MIC90 (Staphylococcus aureus [1]): 1 µg/mL; MIC (Pseudomonas aeruginosa): > 64 µg/mL; MCC [7]: > 64 µg/mL; MIC (Enterococcus faecium): 0.25 µg/mL; MIC90 (Staphylococcus aureus [3]): 1 µg/mL; fraction unbound at 5 h, 10 µM [8]: 0.032; Ratio IC50 [9]: > 25000; clearance [10]: 42 mL/min/kg; MIC90 (Streptococcus pyogenes): 0.5 µg/mL; MIC [11]: 2 µg/mL
4 | Cc1cn([C@H]2CCCN(Cc3ccc(C(=O)O)c(Oc4cccc(Cl)c4)c3)C2)c(=O)[nH]c1=O | 32 |  | 32 |  | 73 | 
5 | CC[C@H](c1ccc(C(=O)O)c(Oc2cccc(Cl)c2)c1F)N1CCC[C@H](n2cc(C)c(=O)[nH]c2=O)C1 | 2 | 0.12 | 2 | 1.75 | 2 | fraction unbound at 5 h, 10 µM [8]: < 0.01; clearance [10]: 119 mL/min/kg
6 | CC[C@@H](c1ccc(C(=O)O)c(Oc2cccc(Cl)c2)c1)N1CCC[C@H](n2cc(C)c(=O)[nH]c2=O)C1 | 4 | 0.22 | 2 |  | 18 | 
7 | Cc1cn([C@H]2CCCN(C(CC(C)C)c3ccc(C#N)c(F)c3F)C2)c(=O)[nH]c1=O (stereo partly specified) |  |  |  | 1.93 |  | 
8 | Cc1cn([C@H]2CCCN(Cc3cccc(Oc4cc(F)cc(Cl)c4)c3Br)C2)c(=O)[nH]c1=O |  |  |  | 2.34 | 581 | 
9 | Cc1cn([C@H]2CCCN(C(CC(C)C)c3ccc(C(=O)O)c(Oc4cccc(Cl)c4)c3F)C2)c(=O)[nH]c1=O (stereo partly specified) |  |  |  | 1.99 |  | 
10 | Cc1cn([C@H]2CCCN(Cc3cccc(Oc4cccc(Cl)c4)c3F)C2)c(=O)[nH]c1=O |  |  |  | 2 | 86 | 
11 | CCC(O)c1ccc(Br)c(Oc2cccc(Cl)c2)c1OC (stereo unspecified) |  |  |  | 3.27 |  | 
12 | O=Cc1cccc(O)c1F |  |  |  | 1.23 |  | 
13 | CCC(c1ccc(Br)c(Oc2cccc(Cl)c2)c1OC)N1CCC[C@H](n2cc(C)c(=O)[nH]c2=O)C1 (stereo partly specified) |  |  |  | 2.41 |  | 
14 | CCC[C@@H](c1ccc(C(=O)O)c(Oc2cccc(Cl)c2)c1)N1CCC[C@H](n2cc(C)c(=O)[nH]c2=O)C1 | 4 |  | 4 |  | 18 | 
15 | COc1c(C=O)ccc(Br)c1Oc1cccc(Cl)c1 |  |  |  | 3.28 |  | 
16 | CCC[C@H](c1ccc(C(=O)O)c(Oc2cccc(Cl)c2)c1)N1CCC[C@H](n2cc(C)c(=O)[nH]c2=O)C1 | 1 |  | 1 |  | 8 | 
17 | CCC[C@H](c1ccc(C(=O)O)c(Oc2cccc(Cl)c2)c1F)N1CCC[C@H](n2cc(C)c(=O)[nH]c2=O)C1 | 1 | 0.53 | 2 | 1.84 | 6 | fraction unbound at 5 h, 10 µM [8]: < 0.01; clearance [10]: 64 mL/min/kg
18 | CC[C@H](c1ccc(C(=O)O)c(Oc2cccc(Cl)c2)c1OC)N1CCC[C@H](n2cc(C)c(=O)[nH]c2=O)C1 | > 16 | -0.13 | > 16 | 1.55 | 69 | fraction unbound at 5 h, 10 µM [6]: 0.006; fraction unbound at 5 h, 10 µM [8]: 0.015; clearance [10]: 84 mL/min/kg
19 | Cc1cn([C@H]2CCCN(Cc3cccc(Oc4cccc(Cl)c4)c3C#N)C2)c(=O)[nH]c1=O |  |  |  | 2.16 | 1190 | 
20 | Cc1cn([C@H]2CCCN([C@H](CC(C)C)c3ccc(C(=O)O)c(Oc4cccc(Cl)c4)c3F)C2)c(=O)[nH]c1=O | 0.5 | 0.92 | 0.25 |  | 1 | MIC (Enterococcus faecalis): 8 µg/mL; MIC90 (Streptococcus pneumoniae): 0.13 µg/mL; fraction unbound at 5 h, 10 µM [6]: < 0.01; MIC (Escherichia coli): > 64 µg/mL; MIC90 (Staphylococcus aureus [1]): 2 µg/mL; MIC (Pseudomonas aeruginosa): > 64 µg/mL; MIC (Enterococcus faecium): 2 µg/mL; MIC90 (Staphylococcus aureus [3]): 2 µg/mL; fraction unbound at 5 h, 10 µM [8]: 0.013; Ratio IC50 [9]: > 25000; clearance [10]: 84 mL/min/kg; MIC90 (Streptococcus pyogenes): 2 µg/mL; MIC [11]: 2 µg/mL
